According to PubChem BioAssay (NCI):
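Five concentrations, 48 hours, 96-well plates. TGI is the concentration that stops growth completely.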

Tests used:
Experiment in all cases: inhibition of tumour cell growth, NCI panel, 48 h
786-0 renal = system: 786-0 renal
A498 renal = system: A498 renal
A549 NSCLC = system: A549 NSCLC
ACHN renal = system: ACHN renal
CAKI-1 renal = system: CAKI-1 renal
CCRF-CEM leukemia = system: CCRF-CEM leukemia
COLO 205 colon = system: COLO 205 colon
DU-145 prostate = system: DU-145 prostate
HCT-116 colon = system: HCT-116 colon
HCT-15 colon = system: HCT-15 colon
HL-60(TB) leukemia = system: HL-60(TB) leukemia
HOP-62 NSCLC = system: HOP-62 NSCLC
HS 578T breast = system: HS 578T breast
HT29 colon = system: HT29 colon
IGROV1 ovarian = system: IGROV1 ovarian
K-562 leukemia = system: K-562 leukemia
KM12 colon = system: KM12 colon
LOX IMVI melanoma = system: LOX IMVI melanoma
M14 melanoma = system: M14 melanoma
MCF7 breast = system: MCF7 breast
MDA-MB-231 breast = system: MDA-MB-231 breast
MDA-MB-435 = system: MDA-MB-435
MDA-N = system: MDA-N
MOLT-4 leukemia = system: MOLT-4 leukemia
NCI-H226 lung = system: NCI-H226 lung
NCI-H23 lung = system: NCI-H23 lung
NCI-H460 lung = system: NCI-H460 lung
NCI-H522 lung = system: NCI-H522 lung
NCI/ADR-RES ovarian = system: NCI/ADR-RES ovarian
OVCAR-3 ovarian = system: OVCAR-3 ovarian
OVCAR-5 ovarian = system: OVCAR-5 ovarian
OVCAR-8 ovarian = system: OVCAR-8 ovarian
PC-3 prostate = system: PC-3 prostate
RPMI-8226 leukemia = system: RPMI-8226 leukemia
SF-268 CNS = system: SF-268 CNS
SF-295 CNS = system: SF-295 CNS
SF-539 CNS = system: SF-539 CNS
SK-MEL-2 melanoma = system: SK-MEL-2 melanoma
SK-MEL-5 melanoma = system: SK-MEL-5 melanoma
SK-OV-3 ovarian = system: SK-OV-3 ovarian
SN12C renal = system: SN12C renal
SNB-19 CNS = system: SNB-19 CNS
SR leukemia = system: SR leukemia
SW-620 colon = system: SW-620 colon
T-47D breast = system: T-47D breast
U251 CNS = system: U251 CNS
UACC-257 melanoma = system: UACC-257 melanoma
UACC-62 melanoma = system: UACC-62 melanoma
UO-31 renal = system: UO-31 renal
BT-549 breast = system: BT-549 breast
EKVX NSCLC = system: EKVX NSCLC
HCC-2998 colon = system: HCC-2998 colon
HOP-92 NSCLC = system: HOP-92 NSCLC
OVCAR-4 ovarian = system: OVCAR-4 ovarian
RXF 393 renal = system: RXF 393 renal
SK-MEL-28 melanoma = system: SK-MEL-28 melanoma
TK-10 renal = system: TK-10 renal

For `COc1ccc(C2CC(c3ccccc3)=Nc3c(-c4ccccc4)nnn32)cc1` (stereo not drawn), the TGI (786-0 renal) was > 100 µM, the TGI (A498 renal) was > 100 µM and the TGI (A549 NSCLC) was > 100 µM. For the same molecule, the TGI (ACHN renal) was > 100 µM, the TGI (CAKI-1 renal) was > 100 µM and the TGI (CCRF-CEM leukemia) was > 100 µM. For the same molecule, the TGI (COLO 205 colon) was > 100 µM, the TGI (DU-145 prostate) was > 100 µM and the TGI (HCT-116 colon) was > 100 µM. The TGI (HCT-15 colon) was > 100 µM, the TGI (HL-60(TB) leukemia) was > 100 µM and the TGI (HOP-62 NSCLC) was > 100 µM. The TGI (HS 578T breast) was > 100 µM, the TGI (HT29 colon) was > 100 µM and the TGI (IGROV1 ovarian) was > 100 µM. For the same molecule, the TGI (K-562 leukemia) was > 100 µM, the TGI (KM12 colon) was > 100 µM and the TGI (LOX IMVI melanoma) was > 100 µM. The TGI (M14 melanoma) was > 100 µM, the TGI (MCF7 breast) was > 100 µM and the TGI (MDA-MB-231 breast) was > 100 µM. The TGI (MDA-MB-435) was > 100 µM, the TGI (MDA-N) was > 100 µM and the TGI (MOLT-4 leukemia) was > 100 µM. The TGI (NCI-H226 lung) was > 100 µM, the TGI (NCI-H23 lung) was > 100 µM and the TGI (NCI-H460 lung) was > 100 µM. For the same molecule, the TGI (NCI-H522 lung) was 69.3 µM, the TGI (NCI/ADR-RES ovarian) was > 100 µM and the TGI (OVCAR-3 ovarian) was > 100 µM. For the same molecule, the TGI (OVCAR-5 ovarian) was > 100 µM, the TGI (OVCAR-8 ovarian) was > 100 µM and the TGI (PC-3 prostate) was > 100 µM. For the same molecule, the TGI (RPMI-8226 leukemia) was 82.6 µM, the TGI (SF-268 CNS) was > 100 µM and the TGI (SF-295 CNS) was > 100 µM. The TGI (SF-539 CNS) was > 100 µM, the TGI (SK-MEL-2 melanoma) was > 100 µM and the TGI (SK-MEL-5 melanoma) was > 100 µM. For the same molecule, the TGI (SK-OV-3 ovarian) was > 100 µM, the TGI (SN12C renal) was > 100 µM and the TGI (SNB-19 CNS) was > 100 µM. The TGI (SR leukemia) was > 100 µM, the TGI (SW-620 colon) was > 100 µM and the TGI (T-47D breast) was 59.6 µM. For the same molecule, the TGI (U251 CNS) was > 100 µM, the TGI (UACC-257 melanoma) was > 100 µM and the TGI (UACC-62 melanoma) was > 100 µM. The TGI (UO-31 renal) was > 100 µM.

In the case of `N=C(c1ccc2ccccc2c1)c1ccccc1Cc1ccccc1`, the TGI (786-0 renal) is reported as > 100 µM, the TGI (A498 renal) is reported as > 100 µM and the TGI (A549 NSCLC) is reported as > 100 µM. The TGI (ACHN renal) was > 100 µM, the TGI (BT-549 breast) was > 100 µM and the TGI (CAKI-1 renal) was > 100 µM. The TGI (CCRF-CEM leukemia) was 82.8 µM, the TGI (COLO 205 colon) was > 100 µM and the TGI (DU-145 prostate) was 96.6 µM. For the same molecule, the TGI (EKVX NSCLC) was > 100 µM, the TGI (HCC-2998 colon) was > 100 µM and the TGI (HCT-116 colon) was > 100 µM. For the same molecule, the TGI (HCT-15 colon) was > 100 µM, the TGI (HL-60(TB) leukemia) was 55.1 µM and the TGI (HOP-62 NSCLC) was > 100 µM. For the same molecule, the TGI (HOP-92 NSCLC) was > 100 µM, the TGI (HT29 colon) was > 100 µM and the TGI (IGROV1 ovarian) was > 100 µM. For the same molecule, the TGI (K-562 leukemia) was > 100 µM, the TGI (KM12 colon) was > 100 µM and the TGI (LOX IMVI melanoma) was > 100 µM. For the same molecule, the TGI (M14 melanoma) was > 100 µM, the TGI (MCF7 breast) was > 100 µM and the TGI (MDA-MB-231 breast) was > 100 µM. For the same molecule, the TGI (MDA-MB-435) was 80.7 µM, the TGI (MDA-N) was > 100 µM and the TGI (MOLT-4 leukemia) was 67.8 µM. For the same molecule, the TGI (NCI-H226 lung) was 98.9 µM, the TGI (NCI-H23 lung) was > 100 µM and the TGI (NCI-H460 lung) was > 100 µM. The TGI (NCI/ADR-RES ovarian) was > 100 µM, the TGI (OVCAR-3 ovarian) was 57.3 µM and the TGI (OVCAR-4 ovarian) was > 100 µM. For the same molecule, the TGI (OVCAR-5 ovarian) was > 100 µM, the TGI (OVCAR-8 ovarian) was > 100 µM and the TGI (PC-3 prostate) was > 100 µM. The TGI (RPMI-8226 leukemia) was > 100 µM, the TGI (RXF 393 renal) was 34.4 µM and the TGI (SF-295 CNS) was > 100 µM. The TGI (SF-539 CNS) was > 100 µM, the TGI (SK-MEL-2 melanoma) was 49.6 µM and the TGI (SK-MEL-28 melanoma) was > 100 µM. For the same molecule, the TGI (SK-MEL-5 melanoma) was > 100 µM, the TGI (SK-OV-3 ovarian) was > 100 µM and the TGI (SN12C renal) was > 100 µM. For the same molecule, the TGI (SNB-19 CNS) was > 100 µM, the TGI (SR leukemia) was > 100 µM and the TGI (SW-620 colon) was > 100 µM. For the same molecule, the TGI (T-47D breast) was 55.7 µM, the TGI (TK-10 renal) was > 100 µM and the TGI (U251 CNS) was > 100 µM. The TGI (UACC-257 melanoma) was > 100 µM, the TGI (UACC-62 melanoma) was > 100 µM and the TGI (UO-31 renal) was > 100 µM.
